According to publication PMC6264390, “Design, Synthesis and Structure-activity Studies of Rhodanine Derivatives as HIV-1 Integrase Inhibitors” (Molecules, 2010):

Key:
[1] = system: Panc-1 pancreatic cancer cell line; test: MTT cytotoxicity assay, Panc-1; type: cell-based; conditions: Homo sapiens, 72 h
Excerpt: (§1) Human melanoma cell line MDA-MB 435, pancreatic cancer cell line Panc-1, and colon cancer cell line HT 29 were purchased from the American Type Cell Culture (Manassas, VA, USA). HCT 116 p53^+/+ and HCT 116 p53^−/^− were kindly provided by Dr. Bert Vogelstein, Johns Hopkins Medical Institutions (Baltimore, MD, USA). HCT 116 p53^+/+, HCT116 p53^−/^−, and HT 29 cells were maintained as monolayer cultures in RPMI 1640 supplemented with 10% fetal bovine serum (FBS; Gemini-Bioproducts, Woodland, CA, USA) and 2 mmol/L L-glutamine at 37 °C in a humidified atmosphere of 5% CO2. Similarly, MDA-MB 435 and Panc-1 cells were maintained in Dulbecco’s modified Eagle’s medium (DMEM) supplemented with 10% fetal bovine serum as described above. […]
(§2) Cytotoxicity was assessed by 3-(4,5-dimethylthiazol-2-yl)-2,5-diphenyltetrazolium bromide (MTT) assay as previously described. […]
(§3) After 72 h exposure to the test compounds, MTT solution (5 mg/mL; 20 μL) was added to each well and cells were incubated for 4 h at 37 °C. […] The absorbance intensity was measured at 570 nm against appropriate blank controls using a microplate reader (Molecular Devices, Sunnyvale, CA, USA). […]

[2] = biological target: T1, human apurinic/apyrimidinic endonuclease 1 (APE1) (Homo sapiens, UniProt P27695); test: APE1 inhibition assay; type: biochemical; conditions: read-out: Inhibition of APE1 catalytic activity IC50
T1 construct: His; made in house
Procedure, shortened: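 His-tagged APE1 (0.05 nM) preincubated with compound 10 min at 30 °C in MOPS pH 7.2 buffer with 7.5 mM MnCl2 and 10% DMSO, then 200 nM 5′-32P-labelled abasic (THF) duplex added for 10 min. Incision products resolved on denaturing gel, phosphorimaged; IC50 from %I versus log concentration.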

[3] = system: HCT 116 p53^−/^−; test: MTT cytotoxicity assay, HCT 116 p53−/−; type: cell-based; conditions: Homo sapiens, 72 h
Excerpt: as §1, §2, §3

[4] = system: HCT 116 p53^+/+; test: MTT cytotoxicity assay, HCT 116 p53+/+; type: cell-based; conditions: Homo sapiens, 72 h
Excerpt: as §1, §2, §3

[5] = system: MDA-MB 435 melanoma cell line; test: MTT cytotoxicity assay, MDA-MB 435; type: cell-based; conditions: Homo sapiens, 72 h, read-out: GI50, MDA-MD435
Excerpt: as §1, §2, §3

T1 sequence (P27695 whole entry): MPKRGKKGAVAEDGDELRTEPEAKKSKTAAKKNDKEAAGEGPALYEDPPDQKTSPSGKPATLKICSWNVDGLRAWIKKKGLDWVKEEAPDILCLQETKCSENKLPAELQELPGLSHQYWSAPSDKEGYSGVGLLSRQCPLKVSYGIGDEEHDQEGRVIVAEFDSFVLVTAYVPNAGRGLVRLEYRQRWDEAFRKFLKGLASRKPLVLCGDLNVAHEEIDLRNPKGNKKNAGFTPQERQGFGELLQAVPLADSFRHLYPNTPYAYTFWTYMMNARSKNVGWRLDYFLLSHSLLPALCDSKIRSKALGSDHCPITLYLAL

Row | Compound | GI50 [1] [µM] | melting point [°C] | IC50 [2] [µM] | GI50 [3] [µM] | GI50 [4] [µM] | GI50 [5] [µM]
1 | O=C(Nc1ccc(Cl)cc1)C(=S)NN1C(=O)C(=Cc2ccc([N+](=O)[O-])o2)SC1=S [Compound 13, N-(4-chlorophenyl)-2-{5-[(5-nitro-2-furyl)methylene]-4-oxo-2-thioxo-1,3-thiazolidin-3-yl}amino-2-thioxoacetamide] | 8.6 ± 1.6 | 159 to 160 | 93 | 6.5 ± 1.2 | > 10 | 13.5 ± 5.2
2 | COc1ccc(NC(=O)C(=S)NN2C(=O)C(=Cc3ccc([N+](=O)[O-])o3)SC2=S)cc1 [Compound 17, N-(4-methoxyphenyl)-2-{5-[(5-nitro-2-furyl)methylene]-4-oxo-2-thioxo-1,3-thiazolidin-3-yl}amino-2-thioxoacetamide] | 8.2 ± 1.2 | 187 to 188 | > 100 | 6.1 ± 2.2 | 5.1 ± 0.8 | 9 ± 1.1
